# Data taken from PubChem BioAssay AID1996.
# Settings: buffer; pH 7.4; 200.0 µM
row,SMILES,solubility kinetic
1,O=[N+]([O-])c1cccc(P(=O)(O)c2cccc([N+](=O)[O-])c2)c1,> 46.2 µg/mL
2,S=C1SCN(CC2CC2)CN1CC1CC1,> 36.4 µg/mL
3,CN(C)c1nc(C#N)nc(N(C)C)n1,22.3 µg/mL
4,N/C(=N\OC(=O)c1ccccc1F)c1cccc([N+](=O)[O-])c1,2.1 µg/mL
5,CN(C)C(=O)CN1C(=O)NC2(CCc3ccccc32)C1=O (stereo not drawn),> 43.1 µg/mL
6,Cc1ccc(SC(C)C(=O)N2CCN(c3ccccc3)CC2)cc1 (stereo not drawn),34.9 µg/mL
7,O=C(COC(=O)c1ccc(Cl)c(S(=O)(=O)N2CCCC2)c1)NCc1ccccc1,26.1 µg/mL
8,O=C(O)c1cc([N+](=O)[O-])ccc1NCCc1ccccc1,> 42.9 µg/mL
9,O=C(NC(=S)Nc1ccccc1Br)C1CC1,41.7 µg/mL
10,Cn1c(=O)c2ccccc2n(CC(=O)NC2CCCCC2)c1=O,8 µg/mL
11,Nc1ccc(Cl)c(S(=O)(=O)Nc2ccc(Cl)cc2)c1,43.4 µg/mL
12,COc1ccccc1OCC(=O)Nc1ccc2c(c1)OCO2,40.9 µg/mL
13,Cn1ccnc1SCC(=O)c1ccc(OC(F)F)cc1,> 44.7 µg/mL
14,CCOc1ccc(Cn2cc(F)c(=O)[nH]c2=O)cc1,> 39.6 µg/mL
15,Cc1ccc([N+](=O)[O-])c(NC2OC(CO)C(O)C2O)c1 (stereo not drawn),> 42.6 µg/mL
16,CC(C)C(=O)Nc1c(-c2cccc(Cl)c2)c(=O)c2ccccc2n1C,10.1 µg/mL
17,O=C(NC1CCCCC1)c1cc2cc(Br)ccc2o1,< 0.7 µg/mL
18,CCC(C(=O)Nc1ccc(C(=O)N2CCCC2)cc1)c1ccccc1 (stereo not drawn),> 50.5 µg/mL
19,CS(=O)(=O)Nc1ccccc1C(=O)OCC(=O)NCc1cccs1,> 55.3 µg/mL
20,CSc1nsc(SCC(=O)Nc2ccccc2F)n1,38 µg/mL
21,C=CCn1c(NC(=O)c2ccccc2)nc2ccccc21,0.8 µg/mL
22,COc1cc([N+](=O)[O-])ccc1NC(=S)NC(=O)CC(C)(C)C,0.3 µg/mL
23,c1ccc2[nH]c(-c3cnco3)cc2c1,21.6 µg/mL
24,COc1cc(C(=S)N2CCOCC2)cc(OC)c1O,> 42.5 µg/mL

row,SMILES,solubility kinetic
1,NC(=O)c1ccccc1NC(=O)N1CCOCC1,37.1 µg/mL
2,COc1cccc(OC)c1C(=O)OCC(=O)N(C)c1ccccc1,43 µg/mL
3,COc1ccccc1CNC(=O)COC(=O)c1ccc(Cl)nc1,> 50.2 µg/mL
4,S=C(NCCc1ccc(Cl)cc1)NC1CCCCC1,4 µg/mL
5,Cc1ccc2oc(=O)n(CCCOc3ccccc3C)c2c1,0.9 µg/mL
6,Cn1c(C(=O)c2ccccc2[N+](=O)[O-])nc2ccccc21,36.1 µg/mL
7,O=C(COC(=O)c1cc(F)cc(F)c1)Nc1cccnc1Cl,10.9 µg/mL
8,COc1ccc(-c2cc(C(=O)Nc3cc(C)on3)no2)cc1,< 0.2 µg/mL
9,COc1ccc(C2c3ccsc3CCN2C(=O)NC(C)(C)C)cc1 (stereo not drawn),1.5 µg/mL
10,CC(NC(=O)NC(=O)c1cccc(Cl)c1)c1ccccc1 (stereo not drawn),0.9 µg/mL
11,COc1ccc(NC(=S)NC(=O)c2ccc3c(c2)OCCO3)cc1,2.1 µg/mL
12,C=CCn1c(O)c(C(CC)=NCC2CCCO2)c(=O)[nH]c1=O (stereo not drawn),> 46.1 µg/mL
13,Cc1cc(C)c2c3c(sc2n1)C(=O)N(c1ccccc1C)CC(=O)N3,25.5 µg/mL
14,O=[N+]([O-])c1ccc2c(c1)nc(CO)n2Cc1ccccc1,9.3 µg/mL
15,Cc1ccc2cc(C)c(SCC(=O)NCC3CCCO3)nc2c1 (stereo not drawn),48.2 µg/mL
16,O=C(NN=C1CCCC1)C1COc2ccccc2O1 (stereo not drawn),> 39 µg/mL
17,N/C(=N\O)c1ccccc1-n1cccc1,> 30.2 µg/mL
18,O=S(=O)(NCc1cccs1)c1ccccc1Cl,> 43.2 µg/mL
19,O=C(CSc1ncccc1C(=O)O)NC1CCCCC1,39.8 µg/mL
20,Cc1ccc2c(c1)cc(C(=O)NCc1ccccc1)n2C,3.5 µg/mL
21,O=C(c1noc2c1CCCC2)N1CCc2ccccc2C1,40.8 µg/mL
22,O=C(O)CCC(=O)N1CCc2c([nH]c3ccccc23)C1C(F)(F)F (stereo not drawn),> 51 µg/mL
23,CCC(CC)C(=O)c1c[nH]c(C(=O)NCc2ccccn2)c1,> 44.9 µg/mL
24,CCOC(=O)C1=C[C@]2(CC)CCCN3CCc4c(n1c1ccccc41)[C@@H]32,35.5 µg/mL

row,SMILES,solubility kinetic
1,O=C(CSc1cccc(C(F)(F)F)c1)Nc1ccc(N2CCOCC2)cc1,7.7 µg/mL
2,Cc1ccccc1C(=O)NC(=S)NCc1ccccc1,< 0.3 µg/mL
3,c1ccc2c(SCc3cn4ccccc4n3)nncc2c1,> 43.9 µg/mL
4,Cc1ccc(NC(=O)C2CCCN(c3ncccn3)C2)c(C)c1 (stereo not drawn),8.5 µg/mL
5,COc1cc2c(cc1OC)CN(CC(=O)NC(=O)NC(C)(C)C)CC2,45.9 µg/mL
6,C[N+](C)(C)CC#CCOC(=O)Nc1cccc(Cl)c1.[Cl-],> 47.6 µg/mL
7,Cc1nn(C)c(C)c1NS(=O)(=O)c1c(C)n[nH]c1C,> 42.5 µg/mL
8,Cc1ccc(S(=O)(=O)N(C)CC(=O)NCCCn2ccnc2)cc1,48.6 µg/mL
9,CCOC(=O)N1CCN(CC(=O)Nc2ccc(F)cc2F)CC1,> 49.1 µg/mL
10,Cc1cc(O)ccc1Nc1nc(-c2cccnc2)cs1,1.8 µg/mL
11,O=C1c2ccccc2C2(c3ccc(F)cc3)NCCN12 (stereo not drawn),> 40.2 µg/mL
12,CCNc1nc(NC(C)C)nc(N(C#N)C(C)C(=O)N(CC)CC)n1 (stereo not drawn),> 52.3 µg/mL
13,O=CN1CCN(c2c([N+](=O)[O-])c(=O)oc3ccccc23)CC1,> 45.5 µg/mL
14,Cc1ccc(S(=O)(=O)NCCC2=CCCCC2)cc1C(N)=O,> 48.4 µg/mL
15,Nc1nc(-c2cccs2)c(-c2cccs2)s1,5.8 µg/mL
16,NC(=O)C1CCCNC1 (stereo not drawn),> 19.2 µg/mL
17,O=C(c1c[nH]c2ccccc12)C(Cl)c1ccccc1 (stereo not drawn),2.1 µg/mL
18,CCOc1ccc(C(=O)N2CCN(c3ccccn3)CC2)cc1,> 46.7 µg/mL
19,Cc1csc(SCC(=O)NC(C)c2ccc(F)cc2)n1 (stereo not drawn),38.8 µg/mL
20,Cc1coc2cc3oc(=O)c(CCC(=O)NC4CC4)c(C)c3cc12,16.7 µg/mL
21,O=C(O)c1cccnc1SCc1ccccc1Cl,> 42 µg/mL
22,COc1ccc(OC)c(NC(=O)COC(=O)CCS(=O)(=O)c2ccc(Cl)cc2)c1,27.5 µg/mL
23,CC(NC(=O)/C=C/c1ccccc1[N+](=O)[O-])C1CC2CCC1C2 (stereo not drawn),1.2 µg/mL
24,Cc1nc(N)ncc1C(=O)Nc1ccccc1,19 µg/mL

row,SMILES,solubility kinetic
1,COC(=O)CC(NC(=O)c1cccs1)c1ccc(OC)c(OC)c1 (stereo not drawn),> 52.4 µg/mL
2,Cc1cc(C)c(C(=O)NCC(=O)c2ccccc2)c(C)c1,8.8 µg/mL
3,COc1ccc(CNC(=O)CCN2C(=S)NC(C)(C)CC2C)cc1 (stereo not drawn),> 52.4 µg/mL
4,Br.Fc1cc(Cl)ccc1NC1=NCCCCC1,> 48.2 µg/mL
5,CC1CCN(CC(=O)N2CCc3ccccc32)CC1,36.9 µg/mL
6,CCOC(=O)c1cc2cc(OCc3ccccc3)ccc2nc1C,< 0.7 µg/mL
7,CCOc1ccc(S(=O)(=O)n2cnc3ccccc32)cc1,42.4 µg/mL
8,O=C(COC(=O)c1cccc(F)c1)NC(=O)NC1CCCC1,41.4 µg/mL
9,FC(F)(F)c1cc(N2CCNCC2)c2ccccc2n1,41.6 µg/mL
10,CC(C)(CCO)Nc1ncnc2onc(-c3ccc(F)cc3)c12,> 47.5 µg/mL
11,O/N=C/c1cc2ccccc2n1Cc1ccccc1F,0.5 µg/mL
12,COC(=O)[C@H](CC(C)C)NC(=O)Nc1ccccc1F,> 42.3 µg/mL
13,COc1ccc(CCNC(=O)c2csc3c2CCCC3)cc1OC,> 51.8 µg/mL
14,CCOc1ccc(C)cc1S(=O)(=O)NC1CCCCCC1,2.2 µg/mL
15,Cc1ccc(S(=O)(=O)N(C)c2ccc(OC(=O)c3cc(=O)[nH]c4ccccc34)cc2)cc1,2.7 µg/mL
16,O=C(O)c1cccc(Nc2c3ccccc3nc3ccccc23)c1,2.4 µg/mL
17,COC(=O)CC1C(=O)NCCN1C(=O)c1sc2ccccc2c1Cl (stereo not drawn),> 55 µg/mL
18,CN1CCN(c2oc(-c3ccccc3)nc2S(=O)(=O)c2ccccc2)CC1,1.4 µg/mL
19,COc1ccc(C(=O)OCC(=O)c2c[nH]c3ccccc23)c(OC)c1,4.5 µg/mL
20,CCCCC(=O)N1CC(=O)Nc2ccc(F)cc2C1c1ccccc1 (stereo not drawn),> 51.1 µg/mL
21,CCC(=O)N(Cc1cc2cc(OC)ccc2[nH]c1=O)c1ccc(C)cc1,3 µg/mL
